The source of these data is ChEMBL document CHEMBL2074088, “Trans-stimulation effects of folic acid derivatives on methotrexate transport by rat renal organic anion transporter, OAT-K1” (J Pharmacol Exp Ther, 2000).

In the test the target is T1, Solute carrier organic anion transporter family member 1A3 (Rattus norvegicus, UniProt P70502).
T1 sequence (P70502 whole entry): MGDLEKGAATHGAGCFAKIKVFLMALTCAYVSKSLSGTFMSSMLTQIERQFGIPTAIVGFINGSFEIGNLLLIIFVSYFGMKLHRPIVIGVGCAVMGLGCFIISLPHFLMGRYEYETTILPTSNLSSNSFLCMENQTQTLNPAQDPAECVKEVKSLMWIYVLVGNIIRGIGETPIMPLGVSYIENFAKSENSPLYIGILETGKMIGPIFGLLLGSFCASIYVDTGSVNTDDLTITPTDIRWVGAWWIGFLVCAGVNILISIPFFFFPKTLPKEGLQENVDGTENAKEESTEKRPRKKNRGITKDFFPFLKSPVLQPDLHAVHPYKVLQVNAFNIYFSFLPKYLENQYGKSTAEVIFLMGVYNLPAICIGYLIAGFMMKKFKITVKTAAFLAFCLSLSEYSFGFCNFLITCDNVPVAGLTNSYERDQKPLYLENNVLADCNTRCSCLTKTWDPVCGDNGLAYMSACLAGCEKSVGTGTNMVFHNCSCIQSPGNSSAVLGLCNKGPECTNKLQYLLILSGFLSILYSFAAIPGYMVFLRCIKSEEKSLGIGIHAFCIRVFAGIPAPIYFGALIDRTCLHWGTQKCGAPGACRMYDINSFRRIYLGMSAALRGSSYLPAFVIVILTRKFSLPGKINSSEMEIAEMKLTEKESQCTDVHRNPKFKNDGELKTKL
As to the kind of experiment: TP_TRANSPORTER: inhibition of MTX uptake in OAT-K1-expressing MDCK cells. The format is functional, cell-based.
Regarding `Nc1nc(N)c2nc(CNc3ccc(C(=O)N[C@@H](CCC(=O)O)C(=O)O)cc3)cnc2n1` [AMINOPTERIN], the inhibitory constant (Ki) (in general, the equilibrium dissociation constant of an inhibitor or competing ligand from its target) worked out at 0.5 µM.

With `Nc1nc2ncc(CNc3ccc(C(=O)N[C@@H](CCC(=O)O)C(=O)O)cc3)nc2c(=O)[nH]1` [FOLIC ACID], the Ki was 14.1 µM.

On to `Nc1nc2c(c(=O)[nH]1)N(C=O)C(CNc1ccc(C(=O)N[C@@H](CCC(=O)O)C(=O)O)cc1)CN2` (stereo not given in full) [LEUCOVORIN], for which the Ki came out at 8.2 µM. This Ki lies about 1.7-fold lower than the previous one.

Compound `CN1c2c(nc(N)[nH]c2=O)NC[C@@H]1CNc1ccc(C(=O)N[C@@H](CCC(=O)O)C(=O)O)cc1` [LEVOMEFOLIC ACID] showed a Ki of 1.2 µM.

`O=C1OC(c2ccc(O)c(S(=O)(=O)O)c2)(c2ccc(O)c(S(=O)(=O)O)c2)c2c(Br)c(Br)c(Br)c(Br)c21` [SULFOBROMOPHTHALEIN SODIUM] came in with a Ki of 21 µM.
